Measurements: publication PMC9959553, “Promising Antifungal Molecules against Mucormycosis Agents Identified from Pandemic Response Box®: In Vitro and In Silico Analyses” (Journal of Fungi, 2023)
Values after ≈ are worked out from the molar mass of the structure shown. Where two headings read alike, the source gives them in different places.

Assays:
R. oryzae [1] = experiment: Antifungal drug synergy assay, Bliss independence model; format: cell-based, Rhizopus oryzae; design: key to Interaction: S, synergistic interaction; A, antagonist interaction; Efficacy of Combined Drugs, E obs / Efficacy of Combined Drugs, E exp: concentration or dose not given beside the values; settings: for Efficacy of Drugs Alone (% of Inhibition), MIC50: at MIC50; for Efficacy of Drugs Alone (% of Inhibition), ½ MIC50: at ½ MIC50; for ΔE: Eobs minus Eexp; for Efficacy of Combined Drugs, E exp: expected by Bliss calculation
Method: Synergistic interactions were evaluated using the checkerboard method according to EUCAST guidelines (EUCAST 2008). R. oryzae conidia (2 × 10^5/mL) were grown in 96-well plates containing supplemented RPMI in the presence of the following selected compounds: […] An inhibition of at least 50% was defined as the cut-off for minimum inhibitory concentration (MIC). Interactions were determined by the fractional inhibitory concentration index (FICI), which was calculated using the following formula: (MIC combined/MIC drug A alone) + (MIC combined/MIC drug B alone). […] The Bliss independence model calculation was performed according to […] colleagues and Zhao and colleagues. The following formula was used to assess drug interaction: […] The results were classified as follows: synergistic effect when Eobs > Eexp; indifference when Eobs = Eexp; antagonistic effect when Eobs < Eexp.

R. oryzae UCP1295 = experiment: Screening of the Pandemic Response Box library at 5 µM; format: cell-based, Rhizopus oryzae; settings: for inhibition at 5 µM: Rhizopus arrhizus, UCP1295, 48 h; for Viability Inhibition (XTT): XTT reduction
Procedure, shortened: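 Growth inhibition was read at 600 nm after conidia (2 × 10^5/mL) grew 48 h at 37 °C, 5% CO2, with 5 μM compound in glucose-supplemented (2%), MOPS-buffered RPMI (pH 7.2). Controls were posaconazole at 5 μM and 1% DMSO. The selection cut-off was at least 60% inhibition.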

[2] = test system: R. stolonifer preformed biofilm; experiment: Preformed biofilm assay; format: cell-based, Rhizopus stolonifer; settings: for Selectivity Index (SI), Preformed Biofilm: R. stolonifer, based on biofilm viability parameter
Method: For the preformed biofilm assay, cells were cultured as described above in the absence of the compounds. […] An additional incubation of 24 h at 37 °C was performed to evaluate the anti-biofilm activity. Evaluation of both biofilm formation and preformed biofilms was performed using three parameters as previously described. Crystal violet, safranin and XTT assays were used to analyze the overall biomass, extracellular matrix and metabolic activity, respectively.

R. oryzae cells = experiment: Analysis of fungal cell alterations with fluorescent staining; format: cell-based, Rhizopus oryzae; settings: ½× MIC50, 48 h
Method: Alterations of R. oryzae cells caused by alexidine, MMV1580844, MMV642550 and MMV019724 were analyzed using fluorescent staining. Chitin, nucleic acid, oxidative stress, mitochondrial membrane potential and neutral lipid content were evaluated using calcofluor white (Sigma-Aldrich, MO, USA), Sytox Blue (ThermoFisher, Waltham, MA, USA), 2′,7′–dichlorofluorescein diacetate (DCFH-DA) (Sigma-Aldrich, MO, USA), JC-1 probe (ThermoFisher, Waltham, MA, USA) and Nile Red (Sigma-Aldrich, MO, USA), respectively. […] Cells were stained with 25 μg/mL of calcofluor white, 20 μM of Sytox Blue, 50 μg/mL of DCFH-DA, 10 μg/mL of JC-1 or 20 μg/mL of Nile Red, all of them for 1 h at 37 °C in the dark. Samples were washed three times to remove residual dye and suspended in PBS. Fluorescence intensity was measured using the SpectraMax 340 microplate reader (Molecular Devices, San José, CA, USA) under the following conditions: calcofluor white at 350 nm (excitation) and 432 nm (emission); Sytox Blue at 444 nm (excitation) and 480 nm (emission); DCFH-DA at 492 nm (excitation) and 517 nm (emission); JC-1 at 475 nm (excitation) and 529 nm (green fluorescence) or 590 nm (red fluorescence) for the calculation of the red/green fluorescence intensity; and Nile Red at 550 nm (excitation) and 635 nm (emission).

R. stolonifer = experiment: Antifungal susceptibility testing (broth microdilution, MIC and MFC); format: cell-based, Rhizopus stolonifer; settings: for Selectivity Index (SI), Planktonic Cell: R. stolonifer, from CC50 and MIC50 of planktonic cells; for MIC50 / MFC: Rhizopus stolonifer, 48 h; for MIC50: lowest concentration that inhibits 50% of fungal growth; for MFC: subculture in drug-free medium
Method: (§1) The susceptibility of the Rhizopus species to MMV396785 (alexidine), MMV1580844, MMV642550 and MMV019724 was determined using the broth microdilution method, according to EUCAST protocols, with modifications. Posaconazole and amphotericin B were also used as reference antifungal drugs because they are commonly used for the treatment of mucormycosis. […] A standardized suspension of conidia (2 × 10^5/mL) was added to the wells and incubated for 48 h at 37 °C, in a 5% CO2 atmosphere. Fungal growth was analyzed via spectrophotometry readings at 600 nm and cell viability was assessed using the XTT reduction assay. Minimum inhibitory concentration (MIC) of each compound was defined as the lowest concentration that inhibits 50% of fungal growth, because these fungi are highly resistant to antifungal drugs and a reduction in half of their growth is relevant. […] MFC values were defined as the lowest drug concentration able to arrest fungal growth.

R. microsporus = experiment: as above; format: cell-based, Rhizopus microsporus var. microsporus; settings: for Selectivity Index (SI), Planktonic Cell: R. microsporus, from CC50 and MIC50 of planktonic cells; for MIC50 / MFC: Rhizopus microsporus, 48 h; for MIC50: lowest concentration that inhibits 50% of fungal growth; for MFC: subculture in drug-free medium
Method: as §1

[3] = test system: R. oryzae, R. microsporus and R. stolonifer; experiment: Antifungal susceptibility testing, values stated over the three species; format: cell-based; settings: over the three Rhizopus species
Method: as §1

R. oryzae [4] = experiment: Antifungal susceptibility testing (broth microdilution, MIC and MFC); format: cell-based, Rhizopus oryzae; settings: for Selectivity Index (SI), Planktonic Cell: R. oryzae, from CC50 and MIC50 of planktonic cells; for MIC50 / MFC: Rhizopus arrhizus, 48 h; for MIC50: lowest concentration that inhibits 50% of fungal growth; for MFC: subculture in drug-free medium
Method: as §1

[5] = Table S1, mean of the four values, read-out: % of growth inhibition, Mean
[6] = optical density 600 nm, read-out: Growth Inhibition

Row | Compound | Efficacy of Drugs Alone (% of Inhibition), MIC50 (R. oryzae [1]) | Efficacy of Drugs Alone (% of Inhibition), ½ MIC50 (R. oryzae [1]) | Efficacy of Combined Drugs, E obs (R. oryzae [1]; combined with Amphotericin B) | Interaction (R. oryzae [1]; combined with Amphotericin B) | ΔE (R. oryzae [1]; combined with Amphotericin B) | Efficacy of Combined Drugs, E exp (R. oryzae [1]; combined with Amphotericin B) | Efficacy of Combined Drugs, E obs (R. oryzae [1]; combined with Posaconazole) | Interaction (R. oryzae [1]; combined with Posaconazole) | ΔE (R. oryzae [1]; combined with Posaconazole) | Efficacy of Combined Drugs, E exp (R. oryzae [1]; combined with Posaconazole) | inhibition at 5 µM (R. oryzae UCP1295; [5]) | inhibition at 5 µM (R. oryzae UCP1295; [6]) | Viability Inhibition (XTT) (R. oryzae UCP1295) | mitochondrial membrane potential (JC-1) (R. oryzae cells) | MIC50 (R. stolonifer) | MFC (R. stolonifer) | MIC50 (R. microsporus) | MFC (R. microsporus) | MIC [3] | MIC50 (R. oryzae [4]) | further results
1 | Oc1c(C(Nc2nc3ccccc3s2)c2ccc(OC(F)F)cc2)ccc2cccnc12 (stereo not drawn) [MMV019724] | 62.0 % of Inhibition | 32.5 % of Inhibition | 74.8% | A | −7.3% | 82.1% | 58.0% | A | −5.6% | 63.6% | 69.6% | 70% | 77% | mitochondrial alterations | 1.25 µM (≈ 0.562 µg/mL) | > 20 µM | 1.25 µM (≈ 0.562 µg/mL) | > 20 µM | 0.63 to 1.25 µM (≈ 0.283 to 0.562 µg/mL) | 0.63 µM (≈ 0.283 µg/mL) | Selectivity Index (SI), Preformed Biofilm [2]: >40; chitin content (calcofluor white) (R. oryzae cells): lower levels; neutral lipids (Nile Red) (R. oryzae cells): lower levels; Selectivity Index (SI), Planktonic Cell (R. stolonifer): >40; Selectivity Index (SI), Planktonic Cell (R. microsporus): >40; Selectivity Index (SI), Planktonic Cell (R. oryzae [4]): >79.4; MFC (R. oryzae [4]): > 20 µM
2 | CCCCC(CC)CNC(=N)NC(=N)NCCCCCCNC(=N)NC(=N)NCC(CC)CCCC (stereo not drawn) [MMV396785, Alexidine, reference compound] | 67.6 % of Inhibition | 21.5 % of Inhibition | 85.9% | S | 1.7% | 84.2% | 91.9% | A | −4.7% | 96.6% | 70.1% | 70% | 89% | did not affect | 0.63 µM (≈ 0.321 µg/mL) | 10 µM (≈ 5.09 µg/mL) | 1.25 µM (≈ 0.636 µg/mL) | 1.25 µM (≈ 0.636 µg/mL) | 0.63 to 1.25 µM (≈ 0.321 to 0.636 µg/mL) | 1.25 µM (≈ 0.636 µg/mL) | Viability Inhibition (XTT) (R. oryzae UCP1295; listed as alexidine): about 89%; Selectivity Index (SI), Preformed Biofilm ([2]; listed as Alexidina MMV396785): >20; concentration giving significant decrease in biofilm parameters ([2]; preformed biofilm, 24 h treatment): 4 × MIC; DNA content (Sytox blue) (R. oryzae cells): reduction; chitin content (calcofluor white) (R. oryzae cells): reduction; neutral lipids (Nile Red) (R. oryzae cells): reduction; Selectivity Index (SI), Planktonic Cell (R. stolonifer; listed as Alexidina MMV396785): >79.4; Selectivity Index (SI), Planktonic Cell (R. microsporus; listed as Alexidina MMV396785): >40; MFC [3]: 1.25 to 10 µM (≈ 0.636 to 5.09 µg/mL); Selectivity Index (SI), Planktonic Cell (R. oryzae [4]; listed as Alexidina MMV396785): >40; MFC (R. oryzae [4]): 10 µM (≈ 5.09 µg/mL)
3 | CCc1nc(N)nc(N)c1C#CC(C)c1cc(OC)cc(-c2ccncc2)c1 (stereo not drawn) [MMV1580844] | 63.5 % of Inhibition | 12.6 % of Inhibition | 60.5% | S | 2.3% | 58.2% | 60.2% | A | −17.4% | 77.6% | 70.2% | 71% | 88% | depolarization of mitochondrial membranes | 0.08 µM (≈ 0.0299 µg/mL) | > 20 µM | 0.08 µM (≈ 0.0299 µg/mL) | > 20 µM | 0.08 µM (≈ 0.0299 µg/mL) | 0.08 µM (≈ 0.0299 µg/mL) | Selectivity Index (SI), Preformed Biofilm [2]: >312.5; oxidative stress, ROS (DCFH-DA) (R. oryzae cells): induced oxidative stress; Selectivity Index (SI), Planktonic Cell (R. stolonifer): >625; Selectivity Index (SI), Planktonic Cell (R. microsporus): >625; Selectivity Index (SI), Planktonic Cell (R. oryzae [4]): >625; MFC (R. oryzae [4]): > 20 µM
